Laboratory results as given in the supplement of paper PMC10307832.

Columns and labels:
Experiment in all cases: relative viability (nuclei count vs DMSO), 5 days (fraction); higher = more cells survive
[1] = compound: COc1cc(N2CCC(N3CCN(C)CC3)CC2)ccc1Nc1ncc(Cl)c(Nc2ccccc2S(=O)(=O)C(C)C)n1 [NVP-TAE684] + N=C(N)NC(=N)NCCc1ccccc1 [Phenformin] (partner 250 µM)
Procedure, shortened: (§1)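 Five library-drug doses in √10 steps were combined with a fixed anchor-drug dose, or a single drug was given alone, by pin tool to lung cancer cell lines in 1536-well plates the day after seeding. Nuclei were stained and counted after 5 days. Relative viability is the nuclei count in treated wells over that in vehicle wells, taken as the median of duplicate plates.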

[2] = compound: C#Cc1cccc(Nc2ncnc3cc(OC)c(OCCCCCCC(=O)NO)cc23)c1 [CUDC-101] + Nc1ncn([C@H]2C[C@H](O)[C@@H](CO)O2)c(=O)n1 [Decitabine] (partner 2 µM)
Procedure, shortened: as §1

[3] = compound: COc1cc2/c(=N/c3ccc(Br)cc3F)nc[nH]c2cc1OCC1CCN(C)CC1 [Vandetanib] + CC1(C)CCC(c2ccc(Cl)cc2)=C(CN2CCN(c3ccc(C(=O)NS(=O)(=O)c4ccc(N[C@H](CCN5CCOCC5)CSc5ccccc5)c(S(=O)(=O)C(F)(F)F)c4)cc3)CC2)C1 [Navitoclax] (partner 0.5 µM)
Procedure, shortened: as §1

[4] = compound: C#Cc1cccc(Nc2ncnc3cc(OC)c(OCCCCCCC(=O)NO)cc23)c1 [CUDC-101] + CCNC(=O)c1noc(-c2cc(C(C)C)c(O)cc2O)c1-c1ccc(CN2CCOCC2)cc1 [Luminespib] (partner 0.01 µM)
Procedure, shortened: as §1

| Cell Line | relative viability ([1]; first compound 0.2 µM) | relative viability ([1]; first compound 0.6325 µM) | relative viability ([1]; first compound 2 µM) | relative viability ([2]; first compound 0.01 µM) | relative viability ([2]; first compound 0.03162 µM) | relative viability ([2]; first compound 0.1 µM) | relative viability ([2]; first compound 0.3162 µM) | relative viability ([2]; first compound 1 µM) | relative viability ([3]; first compound 0.02 µM) | relative viability ([3]; first compound 0.06325 µM) | relative viability ([3]; first compound 0.2 µM) | relative viability ([3]; first compound 0.6325 µM) | relative viability ([3]; first compound 2 µM) | relative viability ([4]; first compound 0.01 µM) | relative viability ([4]; first compound 0.03162 µM) | relative viability ([4]; first compound 0.1 µM) | relative viability ([4]; first compound 0.3162 µM) | relative viability ([4]; first compound 1 µM) |
| --- | --- | --- | --- | --- | --- | --- | --- | --- | --- | --- | --- | --- | --- | --- | --- | --- | --- | --- |
| RERF-LC-KJ | 0.394 | 0.334 | 0.257 | 0.648 | 0.724 | 0.711 | 0.588 | 0.469 | 0.952 | 0.746 | 0.835 | 1.06 | 0.605 | 1.36 | 1.3 | 1.25 | 1.18 | 0.794 |
| SK-LU-1 | 0.577 | 0.413 | 0.303 | 0.671 | 0.646 | 0.677 | 0.729 | 0.609 | 0.954 | 0.571 | 0.794 | 0.953 | 0.789 | 0.188 | 0.203 | 0.213 | 0.206 | 0.216 |
| SK-MES-1 | 0.642 | 0.686 | 0.453 | 0.349 | 0.466 | 0.332 | 0.392 | 0.261 | 1.26 | 1.04 | 1.24 | 1.27 | 1.2 | 0.854 | 0.72 | 0.755 | 0.567 | 0.52 |
| SW 1573 | 0.307 | 0.249 | 0.128 | 0.552 | 0.514 | 0.489 | 0.593 | 0.264 | 1.03 | 0.895 | 1.25 | 0.862 | 0.993 | 0.238 | 0.252 | 0.516 | 0.187 | 0.164 |
